Measured values from patent publication US20040138199A1, “Benzoxazines and derivatives thereof as therapeutic agents” (priority 2002, published 2004).

Each molecule was assayed against T1, p101/p110γ protein (PI3Kγ) (Homo sapiens, UniProt P48736) (assay: PI3Kγ In Vitro Kinase Assay). Settings: purified recombinant p101/p110γ with G protein β1/γ2 subunits; 20 μM ATP, 25 μM PIP2; 20 minutes at room temperature; radioactive PIP3 readout.
T1 construct: HA; made in house; host or cells: Spodoptera frugiperda (Sf9) cells, baculovirus coinfection
Type: biochemical
Protocol: Spodtera frugiperda cells, grown in ESF921 media, were coinfected with baculovirus expressing a glu-tagged […] and baculovirus expressing an HA-tagged p110γ, at a 3:1 ratio of p110 baculovirus to p110γ baculovirus. Sf9 cells were grown to 1×10^7 total cells/mL in 10L bioreactors and harvested 48-72 hours post infection. Samples of infected cells were then tested for expression of p101/p110γ PI3 kinase by immunoprecipitation and Western Blot analysis methods (see below).
To purify PI3Kγ, 4 volumes of room temperature hypotonic lysis buffer (1 mM MgCl2, 1 mM DTT, 5 mM EGTA, 1 mM Pefabloc, 0.5 μM aprotinin, […], 2 μM pepstatin, 5 μM E64, pH 8) per gram of cell paste, was poured onto frozen cell pellets with stirring, then lysed in a nitrogen “bomb” at 400 psi (599HC T316, Parr Instrument Co, Moline, Ill.). NaCl was added to 150 mM, and sodium cholate was added to 1% and mixed for another 45 minutes. The lysates were clarified by centrifugation for 25 minutes at 14,000 rpm. The lysates were then loaded over anti-glu-linked Protein-G Sepaharose beads (Covance Research Products, Richmond, Calif.) using 20 mL resin/50 g cell paste. The column was washed with 15 volumes of wash buffer (1 mM DTT, 0.2 mM EGTA, 1 mM Pefabloc, 0.5 μM aprotinin, 5 μM leupeptin, 2 μM pepstatin, 5 μM E64, 150 mM NaCl, 1% sodium cholate, pH 8). PI3Kγ was eluted with 6 column volumes of wash buffer that contain 100 μg/mL of a peptide that competes for binding of the glu tag. The column fractions with the eluted protein (determined by taking OD280 readings) were collected and dialyzed in 0.2 mM EGTA, 1 mM DTT, 1 mM Pefabloc, 5 μM leupeptin, 0.5% sodium cholate, 150 mM NaCl, and 50% glycerol, pH 8. The fractions were stored at −80° C. until further use.
Spodtera frugiperda cells were coinfected with baculovirus expressing a glu-tagged G protein β1 and baculovirus expressing a […] at a 1:1 ratio of glu-tagged G protein β1 baculovirus to G protein β2 baculovirus. Sf9 cells are grown in 10 L bioreactors and harvested 48-72 hours post infection. Samples of infected cells were tested for G protein β1/β2 expression by Western Blot analysis, as described below. Cell lysates were homogenized and loaded onto a column of glu-tagged beads as in Biological Example 1 and competed off the column with a glu peptide as described in Biological Example 1.
The inhibitory properties of the compounds in Table 1 were assayed in an in vitro PI3K assay. In a 96-well polypropylene plate, each well was spotted with 2 μL of 50 times the desired final concentration of compound in DMSO. Purified recombinant p101/p110γ protein (0.03 μg; ˜2.7 nM) and G protein β1/γ2 subunits (0.09 μg; −57.7 nM) for each reaction was combined in the assay buffer (30 mM HEPES, 100 mM NaCl, 1 mM EGTA, and 1 mM DTT). ATP and [γ-^32P-ATP] (0.09 μCi) were added to this mixture so that the final ATP concentration in the reaction was 20 μM. Lipid micelles were formed by sonicating phosphatidylinositol-4,5-diphosphate (PIP2), phosphatidylethanolamine (PE), and Na-cholate in the assay buffer for 10 minutes, adding MgCL2 and incubating on ice for 20 minutes, for final concentrations of 25 μM PIP2, 300 μM PE, 0.02% Na-cholate, and 10 mM MgCl2 in the reaction. The reactions were started by adding equal volumes lipid and enzyme mixture in a total volume of 50 μL, allowed to run for 20 minutes at room temperature, and stopped with 100 μL 75 mM H3PO4. The lipid product was transferred to a glass fiber filter plate and washed with 75 mM H3PO4 several times. The presence of radioactive lipid product (PIP3) was measured by adding Wallac Optiphase mix to each well and counting in a Wallac 1450 Trilux plate reader (PerkinElmer Life Sciences Inc., Boston, Mass. 02118). The IC50 for each compound tested is reported in μM in Table 1: […]

T1 sequence (P48736 whole entry, species assumed): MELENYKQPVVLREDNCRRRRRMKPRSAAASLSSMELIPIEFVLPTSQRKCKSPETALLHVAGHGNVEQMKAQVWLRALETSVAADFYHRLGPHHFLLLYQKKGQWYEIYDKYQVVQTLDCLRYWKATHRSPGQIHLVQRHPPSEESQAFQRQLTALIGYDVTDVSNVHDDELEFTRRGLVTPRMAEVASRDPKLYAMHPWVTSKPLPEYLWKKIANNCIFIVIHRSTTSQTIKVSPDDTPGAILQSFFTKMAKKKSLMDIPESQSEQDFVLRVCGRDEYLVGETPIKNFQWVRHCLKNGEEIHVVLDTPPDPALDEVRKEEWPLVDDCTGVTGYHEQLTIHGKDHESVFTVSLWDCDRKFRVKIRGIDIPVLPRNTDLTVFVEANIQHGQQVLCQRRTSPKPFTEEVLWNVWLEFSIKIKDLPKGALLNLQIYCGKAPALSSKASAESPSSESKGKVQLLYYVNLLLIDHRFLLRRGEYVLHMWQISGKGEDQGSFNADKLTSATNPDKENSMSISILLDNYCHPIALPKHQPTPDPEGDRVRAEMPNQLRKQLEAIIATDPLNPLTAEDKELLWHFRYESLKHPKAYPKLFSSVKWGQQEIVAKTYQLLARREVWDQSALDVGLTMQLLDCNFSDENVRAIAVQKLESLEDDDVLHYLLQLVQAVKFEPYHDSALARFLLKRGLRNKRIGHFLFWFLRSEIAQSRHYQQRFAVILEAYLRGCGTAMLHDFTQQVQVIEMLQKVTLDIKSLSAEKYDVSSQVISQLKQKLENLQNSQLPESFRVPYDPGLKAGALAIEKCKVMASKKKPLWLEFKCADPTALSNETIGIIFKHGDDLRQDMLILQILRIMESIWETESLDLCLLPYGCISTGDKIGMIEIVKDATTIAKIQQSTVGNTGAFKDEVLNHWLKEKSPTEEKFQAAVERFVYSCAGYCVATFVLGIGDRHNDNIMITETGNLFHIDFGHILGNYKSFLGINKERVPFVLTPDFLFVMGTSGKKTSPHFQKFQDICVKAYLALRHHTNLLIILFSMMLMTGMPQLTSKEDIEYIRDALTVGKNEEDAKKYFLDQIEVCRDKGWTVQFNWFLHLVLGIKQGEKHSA
T1 sequence (Q8WYR1 whole entry partner, species assumed): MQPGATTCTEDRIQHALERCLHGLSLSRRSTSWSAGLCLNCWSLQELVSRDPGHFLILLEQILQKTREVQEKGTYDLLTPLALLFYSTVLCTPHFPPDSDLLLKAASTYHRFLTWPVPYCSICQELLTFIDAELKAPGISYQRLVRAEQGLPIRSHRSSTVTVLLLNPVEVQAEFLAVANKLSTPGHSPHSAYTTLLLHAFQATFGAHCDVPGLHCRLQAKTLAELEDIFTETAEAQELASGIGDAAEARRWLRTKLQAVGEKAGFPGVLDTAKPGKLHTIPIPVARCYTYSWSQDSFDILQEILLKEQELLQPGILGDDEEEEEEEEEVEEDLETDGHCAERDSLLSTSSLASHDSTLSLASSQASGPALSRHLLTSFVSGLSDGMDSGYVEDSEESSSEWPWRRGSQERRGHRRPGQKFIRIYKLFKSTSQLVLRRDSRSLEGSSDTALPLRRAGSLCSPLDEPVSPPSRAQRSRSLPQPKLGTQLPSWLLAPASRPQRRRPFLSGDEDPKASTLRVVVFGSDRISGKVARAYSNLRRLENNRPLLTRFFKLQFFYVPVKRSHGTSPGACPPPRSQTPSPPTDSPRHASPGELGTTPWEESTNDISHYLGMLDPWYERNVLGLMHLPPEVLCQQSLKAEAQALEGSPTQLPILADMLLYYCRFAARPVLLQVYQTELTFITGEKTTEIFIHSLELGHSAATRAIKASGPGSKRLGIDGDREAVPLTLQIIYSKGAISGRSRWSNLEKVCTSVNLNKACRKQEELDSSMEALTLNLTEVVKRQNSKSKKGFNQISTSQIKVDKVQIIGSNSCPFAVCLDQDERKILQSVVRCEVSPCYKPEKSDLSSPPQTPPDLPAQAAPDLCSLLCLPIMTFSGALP

Molecule	IC50 [nM]
O=C1NC(=S)SC1=Cc1ccc2c(c1)N(C(=O)c1ccc3ccccc3c1)CCO2 [Example 29, 5-[4-(Naphthalene-2-carbonyl)-3,4-dihydro-2H-1,4-benzoxazin-6-ylmethylene]-2-thioxo-thiazolidin-4-one]	570
Cc1cc(C)cc(CN2CCCOc3ccc(C=C4SC(=S)NC4=O)cc32)c1 [Example 7, 5-[9-(3,5-Dimethyl-benzyl)-6,7,8,9-tetrahydro-5-oxa-9-aza-benzocyclohepten-2-ylmethylene]-2-thioxo-thiazolidin-4-one]	780
2-Thioxo-5-{9-[3-(3-trifluoromethyl-phenyl)-acryloyl]-6,7,8,9-tetrahydro-5-oxa-9-aza-benzocyclohepten-2-ylmethylene}-thiazolidin-4-one [Example 124]	4010
Cc1ccc(NC(=O)N2CCOc3ccc(C=C4SC(=S)NC4=O)cc32)cc1 [Example 57, 6-(4-Oxo-2-thioxo-thiazolidin-5-ylidenemethyl)-2,3-dihydro-1,4-benzoxazine-4-carboxylic acid p-tolylamide]	95
Cc1cc(C)cc(CN2c3cc(C=C4SC(=S)NC4=O)ccc3OCC2C)c1 (stereo not shown) [Example 9, 5-[4-(3,5-Dimethyl-benzyl)-3-methyl-3,4-dihydro-2H-benzo[1,4]oxazine-6-ylmethylene]-2-thioxo-thiazolidin-4-one]	2590
CCc1ccc(C(=O)N2CCOc3ccc(C=C4SC(=S)NC4=O)cc32)cc1 [Example 26, 5-[4-(4-Ethyl-benzoyl)-3,4-dihydro-2H-1,4-benzoxazin-6-ylmethylene]-2-thioxo-thiazolidin-4-one]	545
O=C1NC(=S)SC1=Cc1ccc2c(c1)N(C(=O)COc1ccc(Cl)cc1)CCO2 [Example 47, 5-{4-[2-(4-Chloro-phenoxy)-acetyl]-3,4-dihydro-2H-1,4-benzoxazin-6-ylmethylene}-2-thioxo-thiazolidin-4-one]	44
O=C1NC(=S)SC1=Cc1ccc2c(c1)N(C(=O)COc1ccccc1)CCO2 [Example 38, 5-[4-(2-Phenoxy-acetyl)-3,4-dihydro-2H-1,4-benzoxazin-6-ylmethylene]-2-thioxo-thiazolidin-4-one]	25
O=C1NC(=S)SC1=Cc1ccc2c(c1)N(S(=O)(=O)c1ccccc1)CCO2 [Example 3, 5-[(4-benzenesulfonyl)-3,4-dihydro-2H-benzo[1,4]oxazine-6-ylmethylene)-2-thioxo-thiazolidin-4-one]	1130
2-[2-(4-Oxo-2-thioxo-thiazolidin-5-ylidenemethyl)-7,8-dihydro-6H-5-oxa-9-aza-benzocycloheptene-9-carbonyl]-anthraquinone [Example 127]	4990
CC(C)(C)c1cc(CN2CCOc3ccc(C=C4SC(=S)NC4=O)cc32)cc(C(C)(C)C)c1 [Example 5, 5[4-(3,5-Di-tert-butyl-benzyl)-3,4-dihydro-2H-benzo[1,4]oxazine-6-ylmethylene]-2-thioxo-thiazolidin-4-one]	1870
O=C1NC(=S)SC1=Cc1ccc2c(c1)N(C(=O)Cc1ccc(Cl)c(Cl)c1)CCO2 [Example 15]	7.3
O=C1NC(=S)SC1=Cc1ccc2c(c1)N(C(=O)c1cc(C(F)(F)F)cc(C(F)(F)F)c1)CCO2 [Example 45, 5-[4-(3,5-Bis-trifluoromethyl-benzoyl)-3,4-dihydro-2H-1,4-benzoxazin-6-ylmethylene]-2-thioxo-thiazolidin-4-one]	760

Next, values leading:

IC50 [nM]	Molecule
8	CCCCCC(=O)N1CCOc2ccc(C=C3SC(=S)NC3=O)cc21 [Example 95, 5-(4-Hexanoyl-3,4-dihydro-2H-1,4-benzoxazin-6-ylmethylene)-2-thioxo-thiazolidin-4-one]
84	CC(C(=O)N1CCOc2ccc(C=C3SC(=S)NC3=O)cc21)c1ccccc1 (stereo not shown) [Example 84, 5-[4-(2-Phenyl-propionyl)-3,4-dihydro-2H-benzo[1,4]oxazin-6-ethylene]-2-thioxo-thiazolidin-4-one]
4000	CCCCCCCCNC(=O)N1CCOc2ccc(C=C3SC(=S)NC3=O)cc21 [Example 62, 6-(4-Oxo-2-thioxo-thiazolidin-5-ylidenemethyl)-2,3-dihydro-1,4-benzoxazine-4-carboxylic acid octylamide]
1530	O=C1NC(=S)SC1=Cc1ccc2c(c1)N(C(=O)c1ccc3nonc3c1)CCCO2 [Example 116, 5-[9-(Benzofurazan-5-carbonyl)-6,7,8,9-tetrahydro-5-oxa-9-aza-benzocyclohepten-2-ylmethylene]-2-thioxo-thiazolidin-4-one]
174	CS(=O)(=O)c1ccc(C(=O)N2CCOc3ccc(C=C4SC(=S)NC4=O)cc32)cc1 [Example 72]
275	CCCCC(CC)C(=O)N1CCOc2ccc(C=C3SC(=S)NC3=O)cc21 (stereo not shown) [Example 99, 5-[4-(2-Ethyl-hexanoyl)-3,4-dihydro-2H-1,4-benzoxazin-6-ylmethylene]-2-thioxo-thiazolidin-4-one]
465	COc1ccc(C)cc1C(=O)N1CCOc2ccc(C=C3SC(=S)NC3=O)cc21 [Example 88, 5-[4-(2-Methoxy-5-methyl-benzoyl)-3,4-dihydro-2H-benzo[1,4]oxazin-6-ethylene]-2-thioxo-thiazolidin-4-one]
2170	COc1cccc(NC(=O)N2CCCOc3ccc(C=C4SC(=S)NC4=O)cc32)c1 [Example 122, 2-(4-Oxo-2-thioxo-thiazolidin-5-ylidenemethyl)-7,8-dihydro-6H-5-oxa-9-aza-benzocycloheptene-9-carboxylic acid (3-methoxy-phenyl)-amide]
115	COc1cc(CC(=O)N2CCOc3ccc(C=C4SC(=S)NC4=O)cc32)cc(OC)c1 [Example 73]
33	CC(=O)N1CCOc2ccc(C=C3SC(=S)NC3=O)cc21 [Example 92, 5-(4-Acetyl-3,4-dihydro-2H-1,4-benzoxazin-6-ylmethylene)-2-thioxo-thiazolidin-4-one]
145	O=C1NC(=S)SC1=Cc1ccc2c(c1)N(C(=O)c1cc(Cl)cc(Cl)c1)CCO2 [Example 63, 5-[4-(3,5-Dichloro-benzoyl)-3,4-dihydro-2H-1,4-benzoxazin-6-ylmethylene]-2-thioxo-thiazolidin-4-one]
37	CC(=O)N1CCC(C(=O)N2CCOc3ccc(C=C4SC(=S)NC4=O)cc32)CC1 [Example 102, 5-[4-(1-Acetyl-piperidine-4-carbonyl)-3,4-dihydro-2H-1,4-benzoxazin-6-ylmethylene]-2-thioxo-thiazolidin-4-one]
1030	CC(C(=O)N1CCOc2ccc(C=C3SC(=S)NC3=O)cc21)C(C)(C)C (stereo not shown) [Example 90, 2-Thioxo-5-[4-(2,3,3-trimethyl-butyryl)-3,4-dihydro-2H-benzo[1,4]oxazin-6-ethylene]-2-thioxo-thiazolidin-4-one]
3760	CC(C)(C)c1cc(C(=O)N2CCOc3ccc(C=C4SC(=S)NC4=O)cc32)cc(C(C)(C)C)c1 [Example 81, 5-[4-(3,5-Di-tert-butyl-benzoyl)-3,4-dihydro-2H-benzo[1,4]oxazin-6-ethylene]-2-thioxo-thiazolidin-4-one]
400	O=C1NC(=S)SC1=Cc1ccc2c(c1)N(C(=O)Oc1cccc3ccccc13)CCCO2 [Example 106, 2-(4-Oxo-2-thioxo-thiazolidin-5-ylidenemethyl)-7,8-dihydro-6H-5-oxa-9-aza-benzocycloheptene-9-carboxylic acid naphthalen-1-yl ester]
